Results published in patent US20230146455A1, “TREATMENT OF INFLAMMATORY DISEASES WITH PEPTIDES AND PHARMACEUTICAL COMPOSITIONS” (Yuyu Pharma, Inc., priority 2020, published 2023).
“And” between values parts separate entries of the source, which are not always exact repeats. Identical values can stand only once. Where a SMILES comes first, the peptide text is derived from it. [ ]: non-standard residue; d: D form. Hyp = O=C(O)[C@@H]1C[C@@H](O)CN1

System: human PBMCs
Test: PBMC cell counts (total, live, viability; trypan blue, Countess) with and without LPS and test articles (Example 9)
Format: cell-based
In short: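 Human PBMCs were pretreated 2 h with test articles (0.001–100 uM) or 0.5% DMSO vehicle, then given LPS at 5 ug/ml or no LPS, in triplicate. After 24 hr, total and live cells and viability were counted by 1:1 trypan blue staining on an automated counter.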

[1] = PBMC + LPS(5 ug/ml) + compound 0.001 uM, 24 hr
[2] = PBMC + LPS(5 ug/ml) + compound 0.01 uM, 24 hr
[3] = PBMC + LPS(5 ug/ml) + compound 0.1 uM, 24 hr
[4] = PBMC + LPS(5 ug/ml) + compound 1 uM, 24 hr
[5] = PBMC + LPS(5 ug/ml) + compound 10 uM, 24 hr
[6] = PBMC + LPS(5 ug/ml) + compound 100 uM, 24 hr
[7] = PBMC + LPS(5 ug/ml) + test article 0.001 uM, Mean
[8] = PBMC + LPS(5 ug/ml) + test article 0.001 uM, single replicates
[9] = PBMC + LPS(5 ug/ml) + test article 0.01 uM, Mean
[10] = PBMC + LPS(5 ug/ml) + test article 0.01 uM, single replicates
[11] = PBMC + LPS(5 ug/ml) + test article 0.1 uM, Mean
[12] = PBMC + LPS(5 ug/ml) + test article 0.1 uM, single replicates
[13] = PBMC + LPS(5 ug/ml) + test article 1 uM, Mean
[14] = PBMC + LPS(5 ug/ml) + test article 1 uM, single replicates
[15] = PBMC + LPS(5 ug/ml) + test article 10 uM, Mean
[16] = PBMC + LPS(5 ug/ml) + test article 10 uM, single replicates
[17] = PBMC + LPS(5 ug/ml) + test article 100 uM, Mean
[18] = PBMC + LPS(5 ug/ml) + test article 100 uM, single replicates
[19] = PBMC + LPS(5 ug/ml), test article 0.001 uM, Mean
[20] = PBMC + LPS(5 ug/ml), test article 0.001 uM, single replicates
[21] = PBMC + LPS(5 ug/ml), test article 0.01 uM, Mean
[22] = PBMC + LPS(5 ug/ml), test article 0.01 uM, single replicates
[23] = PBMC + LPS(5 ug/ml), test article 0.1 uM, Mean
[24] = PBMC + LPS(5 ug/ml), test article 0.1 uM, single replicates
[25] = PBMC + LPS(5 ug/ml), test article 1 uM, Mean
[26] = PBMC + LPS(5 ug/ml), test article 1 uM, single replicates
[27] = PBMC + LPS(5 ug/ml), test article 10 uM, Mean
[28] = PBMC + LPS(5 ug/ml), test article 10 uM, single replicates

Which results are given for `CC(C)C[C@H](NC(=O)CNC(=O)[C@H](CC(=O)O)NC(=O)[C@H](CCC(N)=O)NC(=O)CNC(=O)[C@@H]1C[C@@H](O)CN1)C(=O)N[C@@H](C)C(=O)NCC(=O)N1CCC[C@H]1C(=O)N[C@@H](CCCCN)C(=O)O` [YY-101] (H-[Hyp]GQDGLAGPK-OH; N-terminus and C-terminus assumed)?
Live cell [1]: 6.5 ± 0.4 10^5/ml; Total cell [1]: 7.7 ± 0.6 10^5/ml; Live cell [2]: 6.2 ± 0.1 10^5/ml; Total cell [2]: 8.1 ± 0.6 10^5/ml; Live cell [3]: 5.9 ± 0.3 10^5/ml; Total cell [3]: 7.8 ± 0.8 10^5/ml; Live cell [4]: 6.5 ± 0.3 10^5/ml; Total cell [4]: 9.8 ± 0.6 10^5/ml; Live cell [5]: 6.7 ± 0.5 10^5/ml; Total cell [5]: 9.1 ± 1.1 10^5/ml; Live cell [6]: 5.8 ± 0.4 10^5/ml; Total cell [6]: 7.8 ± 1.0 10^5/ml; Live cell [7]: 6.5 10^5/ml; Live cell (10^5/ml) [7]: 6.5 10^5/ml; Live cell, Mean [7]: 6.5 10^5/ml; Live cell (PBMC + LPS(5 ug/ml) + test article 0.001 uM, individual replicates (1st, 2nd, 3rd)): 5.7 10^5/ml and 7.1 10^5/ml and 6.6 10^5/ml; Live cell [8]: 5.7 10^5/ml and 7.1 10^5/ml and 6.6 10^5/ml; Live cell (10^5/ml) [8]: 5.7 10^5/ml and 7.1 10^5/ml and 6.6 10^5/ml; Live cell (PBMC + LPS(5 ug/ml) + test article 0.001 uM, single replicates (1st, 2nd, 3rd)): 5.7 10^5/ml and 7.1 10^5/ml and 6.6 10^5/ml; Live cell [9]: 6.2 10^5/ml; Live cell (10^5/ml) [9]: 6.2 10^5/ml; Live cell, Mean [9]: 6.2 10^5/ml; Live cell (PBMC + LPS(5 ug/ml) + test article 0.01 uM, individual replicates (1st, 2nd, 3rd)): 6.4 10^5/ml and 6.0 10^5/ml and 6.1 10^5/ml; Live cell [10]: 6.4 10^5/ml and 6.0 10^5/ml and 6.1 10^5/ml; Live cell (10^5/ml) [10]: 6.4 10^5/ml and 6.0 10^5/ml and 6.1 10^5/ml; Live cell (PBMC + LPS(5 ug/ml) + test article 0.01 uM, single replicates (1st, 2nd, 3rd)): 6.4 10^5/ml and 6.0 10^5/ml and 6.1 10^5/ml; Live cell [11]: 5.9 10^5/ml; Live cell (10^5/ml) [11]: 5.9 10^5/ml; Live cell, Mean [11]: 5.9 10^5/ml; Live cell [12]: 6.2 10^5/ml (2×) and 5.2 10^5/ml; Live cell (10^5/ml) [12]: 6.2 10^5/ml (2×) and 5.2 10^5/ml; Live cell (PBMC + LPS(5 ug/ml) + test article 0.1 uM, single replicates (1st, 2nd, 3rd)): 6.2 10^5/ml (2×) and 5.2 10^5/ml; Live cell [13]: 6.5 10^5/ml; Live cell (10^5/ml) [13]: 6.5 10^5/ml; Live cell, Mean [13]: 6.5 10^5/ml; Live cell [14]: 6.3 10^5/ml and 7.1 10^5/ml and 6.2 10^5/ml; Live cell (10^5/ml) [14]: 6.3 10^5/ml and 7.1 10^5/ml and 6.2 10^5/ml; Live cell (PBMC + LPS(5 ug/ml) + test article 1 uM, single replicates (1st, 2nd, 3rd)): 6.3 10^5/ml and 7.1 10^5/ml and 6.2 10^5/ml; Live cell [15]: 6.7 10^5/ml; Live cell (10^5/ml) [15]: 6.7 10^5/ml; Live cell, Mean [15]: 6.7 10^5/ml; Live cell [16]: 6.0 10^5/ml and 6.4 10^5/ml and 7.6 10^5/ml; Live cell (10^5/ml) [16]: 6.0 10^5/ml and 6.4 10^5/ml and 7.6 10^5/ml; Live cell (PBMC + LPS(5 ug/ml) + test article 10 uM, single replicates (1st, 2nd, 3rd)): 6.0 10^5/ml and 6.4 10^5/ml and 7.6 10^5/ml; Live cell [17]: 5.8 10^5/ml; Live cell (10^5/ml) [17]: 5.8 10^5/ml; Live cell, Mean [17]: 5.8 10^5/ml; Live cell [18]: 6.3 10^5/ml and 6.2 10^5/ml and 5.0 10^5/ml; Live cell (10^5/ml) [18]: 6.3 10^5/ml and 6.2 10^5/ml and 5.0 10^5/ml; Live cell (PBMC + LPS(5 ug/ml) + test article 100 uM, single replicates (1st, 2nd, 3rd)): 6.3 10^5/ml and 6.2 10^5/ml and 5.0 10^5/ml; Live cell (PBMC + LPS(5 ug/ml), 0.001 uM, Mean): 6.5 10^5/ml; Live cell (PBMC + LPS(5 ug/ml), 0.001 uM, single replicates): 5.7 10^5/ml and 7.1 10^5/ml and 6.6 10^5/ml; Live cell (PBMC + LPS(5 ug/ml), 0.01 uM, Mean): 6.2 10^5/ml; Live cell (PBMC + LPS(5 ug/ml), 0.01 uM, single replicates): 6.4 10^5/ml and 6.0 10^5/ml and 6.1 10^5/ml; Live cell (PBMC + LPS(5 ug/ml), 0.1 uM, Mean): 5.9 10^5/ml; Live cell (PBMC + LPS(5 ug/ml), 0.1 uM, single replicates): 6.2 10^5/ml (2×) and 5.2 10^5/ml; Live cell (PBMC + LPS(5 ug/ml), 1 uM, Mean): 6.5 10^5/ml; Live cell (PBMC + LPS(5 ug/ml), 1 uM, single replicates): 6.3 10^5/ml and 7.1 10^5/ml and 6.2 10^5/ml; Live cell (PBMC + LPS(5 ug/ml), 10 uM, Mean): 6.7 10^5/ml; Live cell (PBMC + LPS(5 ug/ml), 10 uM, single replicates): 6.0 10^5/ml and 6.4 10^5/ml and 7.6 10^5/ml; Live cell (PBMC + LPS(5 ug/ml), 100 uM, Mean): 5.8 10^5/ml; Live cell (PBMC + LPS(5 ug/ml), 100 uM, single replicates): 6.3 10^5/ml and 6.2 10^5/ml and 5.0 10^5/ml; Live cell [19]: 6.5 10^5/ml; Total cell count [19]: 7.7 10^5/ml; Live cell [20]: 5.7 10^5/ml and 7.1 10^5/ml and 6.6 10^5/ml; Total cell count [20]: 6.7 10^5/ml and 8.8 10^5/ml and 7.5 10^5/ml; Viability [20]: 84.0% and 80.0% and 89.0%; Live cell [21]: 6.2 10^5/ml; Total cell count [21]: 8.1 10^5/ml; Live cell [22]: 6.4 10^5/ml and 6.0 10^5/ml and 6.1 10^5/ml; Total cell count [22]: 9.2 10^5/ml and 8.1 10^5/ml and 7.0 10^5/ml; Viability [22]: 70.0% and 75.0% and 87.0%; Live cell [23]: 5.9 10^5/ml; Total cell count [23]: 7.8 10^5/ml; Live cell [24]: 6.2 10^5/ml (2×) and 5.2 10^5/ml; Total cell count [24]: 9.3 10^5/ml and 6.7 10^5/ml and 7.5 10^5/ml; Viability [24]: 67.0% and 77.0% and 83.0%; Live cell [25]: 6.5 10^5/ml; Total cell count [25]: 9.8 10^5/ml; Live cell [26]: 6.3 10^5/ml and 7.1 10^5/ml and 6.2 10^5/ml; Total cell count [26]: 8.8 10^5/ml and 9.7 10^5/ml and 11.0 10^5/ml; Viability [26]: 72.0% and 73.0% and 55.0%; Live cell [27]: 6.7 10^5/ml; Total cell count [27]: 9.1 10^5/ml; Live cell [28]: 6.0 10^5/ml and 6.4 10^5/ml and 7.6 10^5/ml; Total cell count [28]: 7.3 10^5/ml and 9.0 10^5/ml and 11.0 10^5/ml; Viability [28]: 83.0% and 71.0% and 67.0%
